Columns and labels:
[1] = Mouse maximum tolerated dose (MTD) experiment; conditions: in vivo, mice, oral, administered 7 days then observed 7 days
Method: In the mouse MTD experiment, the mice were administrated with the present compounds.
Healthy mice, having a small difference in body's weights, were chosen. The chosen mice were placed in different layers of cages according to their body's weights. In each layer, the mice were randomly divided into groups. In each group, there were three mice.
The administration dosages were 1000, 500, 250, 125, 62.5 and 31.25 mg/kg respectively and each two dosages differed by a factor of 2. For each of administration dosages, three mice were allotted. The mice were administrated with the present compounds for 7 days and then observed for the next 7 days without the present compounds.
The present compounds were orally administrated with the mice according to the administration dosage and the body weight.

HCT116 = experiment: In vitro cell experiment (MTT), HCT116; type: cell-based; conditions: HCT-116, 72 h, human colon carcinoma cells
Method: (§1) Cells in logarithmic growth phase were seeded at a certain density in a 96-well plate (200 μL/well). The cells were allowed to grow for 24 h and subsequently treated with different concentrations of drugs (including a blank group and a control group) and incubated for 72 h at 37° C. Each concentration in a given experiment was tested in triplicate. After 72 h of exposure, 20 μL of the MTT labeling reagent was added to the medium (the final concentration of MTT was 0.5 mg/mL), and the cells were incubated for additional 4 h at 37° C. Following this process, 180 μL of the medium was removed and 130 μL of DMSO was added to each well, or the medium was completely removed and 150 μL of DMSO was added to each well. Then the plate was shaken and mixed in a micro-oscillator. Finally the optical density (OD) of each sample was measured in a micro-plate reader at 550 nm. Cell inhibition rate was calculated according to the following formula: […]
(§2) According to cell inhibition rates, IC50 was calculated by LOGIT method. The experiments were repeated twice and the data was expressed as means±SD.

SK-OV-3 = experiment: In vitro cell experiment (MTT), SK-OV-3; type: cell-based; conditions: 72 h, human ovarian carcinoma cells (EGFR2 overexpressing)
Method: as §1, §2

HCC827 = experiment: In vitro cell experiment (MTT), HCC827; type: cell-based; conditions: 72 h, human non-small cell lung carcinoma (EGFR1 19 exon mutation)
Method: as §1, §2

A549 = experiment: In vitro cell experiment (MTT), A549; type: cell-based; conditions: 72 h, human non-small-cell lung carcinoma cells (EGFR1 wildtype)
Method: as §1, §2

H292 = experiment: In vitro cell experiment (MTT), H292; type: cell-based; conditions: NCI-H292, 72 h, human lung carcinoma cells (EGFR1 overexpressing)
Method: as §1, §2

With `COc1cc2c(Nc3ccc(Br)cc3F)ncnc2cc1OCc1cccc(C#N)c1` [Compound 3, 4-(4-bromo-2-fluoroanilino)-6-methoxy-7-(3-cyanobenzyloxy) quinazoline] the MTD [1] was 500 to 1000 mg/kg, the IC50 (HCT116) was 892 nM and the IC50 (SK-OV-3) was 2020 nM.

Work on `COc1cc2c(Nc3ccc(Br)cc3F)ncnc2cc1OCc1ccc(C(F)(F)F)cc1` [Compound 5, 4-(4-bromo-2-fluoroanilino)-6-methoxy-7-(4-trifluoromethyl-benzyloxy)quinazoline] yielded an IC50 (HCT116) of 1040 nM.

Work on `COc1cc2c(Nc3ccc(Br)cc3F)ncnc2cc1OCc1cccc(C)n1` [Compound 7, 4-(4-bromo-2-fluoroanilino)-6-methoxy-7-((6-methylpyridine-2-yl)methoxy)quinazoline] yielded an IC50 (HCC827) of 8.6 nM and an MTD [1] of 62.5 to 125 mg/kg.

With `COc1cc2c(Nc3ccc(Br)cc3F)ncnc2cc1OCCn1c(C)nc2ccccc21` [Compound 8, 4-(4-bromo-2-fluoroanilino)-6-methoxy-7-(2-(2-methyl-1H-benzo[d]imidazole-1-yl)ethoxy)quinazoline] the IC50 (SK-OV-3) was 2770 nM.

`COc1cc2c(Nc3ccc(Br)cc3F)ncnc2cc1OCc1ccc(N2CCOCC2)cc1` [Compound 12, 4-(4-bromo-2-fluoroanilino)-6-methoxy-7-(4-morpholinobenz-yloxy)quinazoline] showed an IC50 (HCT116) of 1090 nM.

Molecule `COc1cc2c(Nc3ccc(Br)cc3F)ncnc2cc1OCc1csc(C)n1` [Compound 17, 4-(4-bromo-2-fluoroanilino)-6-methoxy-7-((2-methylthiazole-4-yl)methoxy)quinazoline] has an IC50 (HCC827) of 6.7 nM and an MTD [1] of 500 to 1000 mg/kg.

With `COc1cc2c(Nc3ccc(Br)cc3F)ncnc2cc1Oc1ccc(C(=O)N2CCOCC2)cn1` [Compound 18, (6-(4-(4-bromo-2-fluoroanilino)-6-methoxyquinazolin-7-yl-oxy)pyridine-3-yl)(morpholino)methanone] the IC50 (HCT116) was 962 nM.

Work on `COc1cc2c(Nc3ccc(F)c(Cl)c3)ncnc2cc1OCCCn1ccnc1` [Compound 25, 4-(3-chloro-4-fluoroanilino)-6-methoxy-7-(3-(1H-imidazole-1-yl)propoxy)quinazoline] yielded an IC50 (HCC827) of 2.6 nM.

With `COc1cc2c(Nc3ccc(Br)cc3F)ncnc2cc1OCCc1csc(C)n1` [Compound 26, 4-(4-bromo-2-fluoroanilino)-6-methoxy-7-(2-(2-methylthiazol-4-yl)ethoxy)quinazoline] the IC50 (HCC827) was 1.4 nM.

`COc1cc2c(Nc3ccc(F)c(Cl)c3)ncnc2cc1OCc1csc(C)n1` [Compound 27′, 4-(3-chloro-4-fluoroanilino)-6-methoxy-7-((2-methylthiazol-4-yl)methoxy)quinazoline] gave an IC50 (HCC827) of 6.2 nM.

Work on `CNC(=O)CCCCCOc1cc2ncnc(Nc3ccc(Br)cc3F)c2cc1OC` [Compound 31, N-methyl-6-(4-(4-bromo-2-fluoroanilino)-6-methoxyquinazolin-7-yloxy)hexanamide] yielded an IC50 (HCC827) of 10.7 nM.

In the case of `COc1cc2c(Nc3ccc(F)c(Cl)c3)ncnc2cc1OCCn1ccnc1` [Compound 36, 4-(3-chloro-4-fluoroanilino)-6-methoxy-7-(2-(1H-imidazol-1-yl)ethoxy)quinazoline], the IC50 (A549) is reported as 3640 nM and the IC50 (SK-OV-3) is reported as 2920 nM.

`COc1cc2c(Nc3ccc(F)c(Cl)c3)ncnc2cc1OCCCCC(N)=O` [Compound 41, 5-(4-(3-chloro-4-fluoroanilino)-6-methoxyquinazolin-7-yl-oxy)pentanamide] showed an IC50 (HCC827) of 0.9 nM, an IC50 (H292) of 89.9 nM and an IC50 (A549) of 2710 nM. It also gave an IC50 (SK-OV-3) of 2680 nM.

`CNC(=O)CCCCCOc1cc2ncnc(Nc3ccc(F)c(Cl)c3)c2cc1OC` [Compound 42, N-methyl-6-(4-(3-chloro-4-fluoroanilino)-6-methoxyquinazolin-7-yloxy)hexanamide] gave an IC50 (HCC827) of 2.8 nM.

`COc1cc2c(Nc3ccc(F)c(Cl)c3)ncnc2cc1OCCCCCC(=O)N(C)C` [Compound 43, N, N-dimethyl-6-(4-(3-chloro-4-fluoroanilino)-6-methoxyquinazolin-7-yloxy)hexanamide] gave an IC50 (HCC827) of 4.1 nM.
